# Experimental data taken from patent US20260283925A1, “NOVEL PEPTIDE HAVING ACTIVITY OF RETARDING DEGRADATION OF HYALURONIC ACID AND USES THEREOF” (CAREGEN CO., LTD., priority 2023, published 2026).
# Columns and labels:
# [1] = Delay of hyaluronic acid degradation by reactive oxygen species in hyaluronic acid solution (viscosity, rheometer); conditions: 1.5 wt % hyaluronic acid in PBS, peptide 100, 1000, 5000 ppm, 500 mM H2O2, 60 and 180 minutes, FIG. 5
# Procedure: Hyaluronic acid was dissolved in PBS to a concentration of 1.5 wt % and hydrated, and 10 g of this solution was dispensed into each conical tube. Peptide solutions were added to the dispensed hyaluronic acid solutions so that the final peptide concentrations were 0 ppm (no addition), 100 ppm, 1000 ppm, and 5000 ppm, respectively. 2 mL of 500 mM hydrogen peroxide (H2O2) was added to each. Viscosity was measured using a rheometer (single shear stress) by sampling at 0, 30, 60, and 180 minutes to compare the viscosity values according to the peptide concentration. As above, 1.5 wt % hyaluronic acid solutions containing peptides at each concentration were treated with hydrogen peroxide to maintain the degradation reaction by reactive oxygen species for 60 and 180 minutes, thereby degrading hyaluronic acid. After the degradation reaction, the viscosity of each hyaluronic acid solution was measured to confirm the degradation delaying efficacy.
# [2] = Delay of hyaluronic acid degradation by reactive oxygen species in BDDE-cross-linked hyaluronic acid filler (Congo Red diffusion, absorbance 500 nm); conditions: 37° C., FIG. 6
# Procedure: A 1,4-Butanediol diglycidyl ether (BDDE)-cross-linked hyaluronic acid filler with or without the peptide of Preparation Example 1 was prepared, and Congo Red and hyaluronidase (HAdase) as absorbing dyes were prepared. 20 μL of 1 mM Congo Red was added to each 1.5 mL eppendorf tube, and 100 μL each of the peptide-free filler (control filler) and the peptide-containing filler were added on the absorbing dye. Each was treated with 350 μL of 500 mM hydrogen peroxide (H2O2). Each tube was placed in an incubator at 37° C., and 100 μL of the sample supernatant was collected at time points of 1 hour, 3 hours, 6 hours, 24 hours, 48 hours, and 72 hours and transferred to 96-wells. The absorbance was measured at 500 nm using a microplate reader (SpectraMax iD3, Molecular devices, USA). As above, BDDE-cross-linked hyaluronic acid filler samples with or without the peptide were prepared, and the degree of degradation of hyaluronic acid filler by reactive oxygen species was compared depending on the presence or absence of peptide. The degree of degradation of hyaluronic acid filler was measured by the change in absorbance due to the diffusion of dye. That is, the principle that the flowability of the sample increases when hyaluronic acid is degraded by reactive oxygen species and thus the diffusion of the dye increases was utilized.
# [3] = tested on: hyaluronidase (HAdase); assay: Delay of hyaluronic acid degradation by hyaluronidase in BDDE-cross-linked hyaluronic acid filler (Congo Red diffusion, absorbance 500 nm); format: biochemical; conditions: 24 hours after treatment with hyaluronidase, 37° C., FIG. 4
# Procedure: A 1,4-Butanediol diglycidyl ether (BDDE)-cross-linked hyaluronic acid filler with or without the peptide of Preparation Example 1 was prepared, and Congo Red and hyaluronidase (HAdase) were prepared as absorbing dyes. 20 μL of 1 mM Congo Red was added to a 1.5 mL eppendorf tube, and 100 μL each of the peptide-free filler (control filler) and the peptide-containing filler were added on the absorbing dye. Each was treated with 350 μL of 0.15 mg/mL (108 units) of hyaluronidase. Each tube was placed in an incubator at 37° C., and 100 μL of the sample supernatant was collected at time points of 6 and 24 hours and transferred to a 96-well. The absorbance was measured at 500 nm using a microplate reader (SpectraMax iD3, Molecular Devices, USA). As above, BDDE-cross-linked hyaluronic acid filler samples with or without the peptide were prepared, and the degree of degradation of the hyaluronic acid filler by hyaluronidase was compared depending on the presence or absence of the peptide. The degree of degradation of the hyaluronic acid filler was measured by the change in absorbance according to the diffusion of the dye. That is, the principle, in which the flowability of the sample increases when hyaluronic acid is degraded by the degradation enzyme, thereby increasing the diffusion of the dye, was utilized.
# [4] = tested on: NIH3T3 cells (mouse fibroblast); assay: Cell proliferation analysis (MTT); format: cell-based; conditions: peptide 1.6-1000 μM, 72 hours, FIG. 1
# Procedure: (§1) NIH3T3 cells (mouse fibroblast) and HaCaT cells (human keratinocyte cell line) were seeded at a density of 1×10^4 cells/well in a 96-well plate and cultured for 24 hours. The cells were washed once with serum-free DMEM medium. Different amounts of peptides were added to 200 μL of serum-free DMEM medium to prepare peptide medium solutions having concentrations of 1.6 μM, 8 μM, 40 μM, 200 μM, and 1000 μM, and the prepared peptide medium solutions were treated to the washed cells. Then, the treated cells were cultured in a CO2 incubator at 37° C. for 72 hours, washed twice with PBS, and MTT (Sigma, Cat. No.: M2003, USA) solution was dispensed into each well to a final concentration of 0.5 mg/mL. Then, after blocking light, the cells were cultured in a CO2 incubator at 37° C. for 4 hours. The absorbance was measured at 540 nm using a microplate reader (SpectraMax iD3, Molecular devices, USA).
# [5] = tested on: HaCaT cells (human keratinocyte cell line); assay: Cell proliferation analysis (MTT); format: cell-based; conditions: peptide 1.6-1000 μM, 72 hours, FIG. 1
# Procedure: as §1
# [6] = Thermal stability of peptide (HPLC area); format: physicochemical; conditions: 1000 ppm solution, 25° C. and 50° C., 72 hours, FIG. 7a
# Procedure: The evaluation of thermal stability was performed as follows. A diluted solution of the peptide of Preparation Example 1 at a concentration of 1000 ppm was prepared, dispensed into 50 mL conical tubes, and placed in an incubator at 25° C. and 50° C. After 72 hours, 1 mL of each sample was filtered through a 0.22 μm filter. The area values were compared at 25° C. based on pH 7 measured by HPLC.
# [7] = tested on: NIH3T3 cells (mouse fibroblast); assay: Promotion of collagen and hyaluronic acid (HA) expression, ELISA of culture supernatant; format: cell-based; conditions: 50 μM to 200 μM, 72 hours, FIG. 2
# Procedure: (§2) NIH3T3 cells (mouse fibroblast) and HaCaT cells (human keratinocyte cell line) were seeded at a density of 1×10^4 cells/well in a 24-well plate and cultured for 24 hours. The cells were washed once with serum-free DMEM medium. Different amounts of peptides were added to 500 μL of serum-free DMEM medium to prepare peptide medium solutions having concentrations of 50 μM, 100 μM, and 200 μM, and the washed cells were treated with the prepared peptide medium solutions. As a positive control, 100 nM […] was used in NIH3T3 cells and 100 nM IGF-1 was used in HaCaT cells. The treated cells were then cultured in a CO2 incubator at 37° C. for 72 hours. The cell culture liquid was collected, centrifuged, and the supernatant was transferred to a tube. The obtained supernatant was subjected to ELISA analysis using the Collagen ELISA kit (Abcam, Cat No.: ab210579, UK) and HA ELISA kit (ECHELON Biosciences, Cat No.: K-1200, USA), respectively.
# [8] = tested on: HaCaT cells (human keratinocyte cell line); assay: as above; format: cell-based; conditions: 50 μM to 200 μM, 72 hours, FIG. 2
# Procedure: as §2
# [9] = pH stability of peptide (HPLC area); format: physicochemical; conditions: 1000 ppm solution titrated to pH 4, pH 7, pH 10, HPLC area relative to pH 7, FIG. 7b
# Procedure: The evaluation of pH stability was performed as follows. A diluted solution of the peptide of Preparation Example 1 at a concentration of 1000 ppm was prepared, and the initial pH value of the solution was measured (pH=3.21). 0.5 M NaOH was added so as to titrate the pH of the solution to pH 4, pH 7, and pH 10, respectively. Each sample was filtered through a 0.22 μm filter. The area values were compared based on pH 7 measured by HPLC.
# [10] = tested on: hyaluronidase from bovine testes; assay: Delay of hyaluronic acid degradation by hyaluronidase in hyaluronic acid solution (viscosity, rheometer); format: biochemical; conditions: 1.5 wt % hyaluronic acid in PBS
# Procedure: Hyaluronic acid was dissolved in PBS to a concentration of 1.5 wt % and hydrated, and 10 g of this solution was dispensed into each conical tube. Peptide solutions were added to the dispensed hyaluronic acid solutions so that the final peptide concentrations were 0 ppm (no addition), 100 ppm, 1000 ppm, and 5000 ppm, respectively. 2 mL of hyaluronic acid degrading enzyme (hyaluronidase from bovine testes, Hadase, Sigma) was added to each conical tube. Viscosity was measured using a rheometer (single shear stress) by sampling at 0 and 30 minutes to compare the viscosity values according to the peptide concentration. As above, the 1.5 wt % hyaluronic acid solution containing the peptides at each concentration was treated with hyaluronidase, and the enzymatic reaction was maintained for 30 minutes to decompose hyaluronic acid. After the degradation reaction, the viscosity of the hyaluronic acid solution was measured to confirm the degradation delay efficacy.
sequence,measurement,setting,value
KIWNLEPSRNGT (H2N-Lys-Ile-Trp-Asn-Leu-Glu-Pro-Ser-Arg-Asn-Gly-Thr-COOH) [peptide having SEQ ID NO: 1],degradation delaying efficacy (viscosity of hyaluronic acid solution after hydrogen peroxide),[1],degradation of hyaluronic acid was delayed as the concentration of peptide increased
same,improvement of degradation delay versus peptide-free filler,[2]; 24 hours after treatment with 500 mM hydrogen peroxide,≥ 50%
same,effect of delaying degradation,"[2]; treated 48 hours with 500 mM hydrogen peroxide, filler without peptides mostly degraded",85%
same,improvement of delay of degradation versus peptide-free filler,[3],≥ 15%
same,effect of promoting cell proliferation,[4],significant effect of promoting cell proliferation
same,effect of promoting cell proliferation,[5],significant effect of promoting cell proliferation
same,thermal stability,[6],stable even at a high temperature of 50 °C
same,collagen expression,[7]; Collagen ELISA,significant increase in collagen expression
same,hyaluronic acid (HA) expression,[7]; HA ELISA,increase in hyaluronic acid (HA) expression
same,collagen expression,[8]; Collagen ELISA,significant increase in collagen expression
same,hyaluronic acid (HA) expression,[8]; HA ELISA,increase in hyaluronic acid (HA) expression
same,pH stability,[9],stable even at a high temperature of 50 °C and in the range of pH 4 to pH 10
same,difference in the degradation delay efficacy of 1000 ppm and 5000 ppm,[10]; hyaluronidase 30 minutes,not significant
same,degradation delay efficacy (viscosity of hyaluronic acid solution after hyaluronidase),"[10]; peptide 100, 1000, 5000 ppm, 30 minutes, FIG. 3",degradation of hyaluronic acid was delayed as the concentration of the peptide increased
